Test results taken from patent publication US5498624A, “Selected pyrazolyl derivatives” (Monsanto Company, priority 1995, dated 1996).
Like-named read-outs stand apart in the source and are kept apart here.

Columns and labels:
Succinate Dehydrogenase = assay: Enzyme Inhibition I-50 (WGB): Succinate Dehydrogenase Assay using Septoria nodorum mitochondria; format: biochemical
Description: Succinate Dehydrogenase Assay using Septoria nodorum mitochondria--Septorianodorum mycelia are prepared from spores via shake culture for 40-48 hours in 3% malt extract at room temperature. The mycelia are harvested by centrifugation and the pellets obtained are stored in the -80° C. freezer until use.
Mitochondria are isolated by a method adapted from White (Biochem. Biophys. Res. Commun. 44 (1971) 1212-19). Fifteen to twenty grams of frozen mycelia are resuspended in a 250 mL medium containing 0.25M sucrose, 5 mM tetrasodium ethylenediamine tetraacetic acid (Na4 EDTA), pH 7.0 containing 1.5 g/liter bovine serum albumin (BSA) and placed in a Bead Beater chamber (BioSpec Products, Bartlesville, Okla.). Zirconium oxide beads (0.5 mm) are added to finish filling the chamber. Four 30s beats separated by 2 rain temperature equilibration periods on ice are used to break the mycelia. The homogenate is centrifuged for 20 min at 3000×g and 4° C. to remove debris. The supernatant is recentrifuged at 20,000×g for 20 min at 4° C. The resulting pellet is resuspended in BSA-free sucrose/EDTA medium (40 mL) using a glass tissue homogenizer and teflon pestle and recentrifuged at 27,000×g for 15 min at 4° C. The pellet is resuspended in BSA-free sucrose/EDTA medium (~3 mL) and used for SDH assays.
The enzyme activity is measured at […] in a solution containing 50 mM potassium phosphate, pH7.2; 1 mM potassium cyanide; 45 μM 2,6-dichlorophenol indophenol (DCPIP) and 17 mM disodium succinate in a final volume of 1 mL with a Perkin-Elmer Lambda 7 ultraviolet-visible spectrophotometer. The test compounds are added as acetone solutions (final concentration of acetone less than or equal to 1%(v/v)). The mitochondrial preparations are used to initiate the reaction. All rates are corrected for succinate-independent dye reduction. Semilog plots of percentage inhibition versus test compound concentration are used to determine inhibition expressed as I50 (μM) which is the concentration required to inhabit the rate of DCPIP reduction by 50%. The commercial fungicide carboxin is used as a standard throughout [I50 (μM)=5.0±2.2; n=52].

[1] = tested on: Erysiphe graminis f. sp. tritici; assay: Wheat Powdery Mildew Foliar Assay (WPM Prot); format: in vivo
Description: A) Pathogen/Inoculum Production--Leaf material infected with the wheat powdery mildew fungus, Erysiphe graminis f. sp. tritici, is maintained continuously on wheat seedlings, cv. Caldewell.
(B) Host Propagation, (C) Compound Preparation and (D) Compound Application follow as per Example 1.
(E) Inoculation/Incubation--Inoculation of the test plants takes place 24 hours after compound application. Inoculation is accomplished by gently shaking plants previously infected with the Erysiphe graminis f. sp. tritici fungus over the test plants. This process liberates a cloud of spores which effectively and uniformly fall onto the test plants. After inoculation the plants are returned to the environmental conditions under which they were grown.
(F) Evaluation and (G) Data follow as per Example 1. The percent protection values for the compounds of the present invention are as set out in the Table below.

[2] = tested on: Pseudocercosporella herpotrichoides var. tritici; assay: Wheat True Eyespot In Vitro Assay (WES In Vitro); format: cell-based; set-up: key: 0: no inhibition of mycelial growth; 1: slight inhibition of mycelial growth; 2: moderate inhibition of mycelial growth; 3: strong inhibition of mycelial growth; details: 3 days at 19° C.
Description: A) Pathogen/Inoculum Production--A mycelial transfer of Pseudocercosporella herpotrichoides var. tritici is placed onto potato dextrose agar plates and allowed to grow for 40 days at 20 ° C., without light. Five agar discs are taken from the actively growing culture and are placed equidistant, mycelial side down, onto a water agar plate, and incubated at 10 ° C. with 10 hours of fluorescent light per day. After 5 days of incubation, sporulation on the transferred discs begins, and plates are flooded with 3-5 mls sterile deionized water. One-half ml aliquots are taken from the resulting spore suspension and placed on new water agar plates. Spores are spread across plates using a bent glass rod and incubated at 10 ° C. with 10 hour fluorescent light periods per day. In 5-10 days, a lawn of spores is produced and can be "harvested".
B) Compound Preparation and Test Execution--200 μl of 1/4 strength potato dextrose broth is placed in each well of a 96 well microtiter plate. […] The commercial standard used is prochloraz at equivalent rates.
C) Inoculation/Incubation--50 μl of a 1×10^6 spores/ml suspension harvested using the method above is added to each well. The 96 well plates are incubated for 3 days at 19° C. in the dark.
(§1) D) Evaluation--After incubation, each well is visually assessed for growth inhibition on the following 0-3 scale:
(§2) 0=no inhibition of mycelial growth
(§3) 1=slight inhibition of mycelial growth
(§4) 2=moderate inhibition of mycelial growth
(§5) 3=strong inhibition of mycelial growth

Septoria nodorum [3] = assay: Wheat Glume Blotch (WGB) In Vitro; format: cell-based; set-up: key: 0: no inhibition of mycelial growth; 1: slight inhibition of mycelial growth; 2: moderate inhibition of mycelial growth; 3: strong inhibition of mycelial growth; details: 4-6 days at 25° C.
Description: A) Pathogen/Inoculum Production--The wheat glume blotch fungus, Septoria nodorum, is cultured on yeast/malt agar at 22° C. and 12 hours fluorescent light. Several sterile loops full of mature pycnidia produced on a 7 day old culture plates are added to 30 mls of 1/4 strength potato dextrose broth. After 15 minutes the suspension is stirred, and adjusted to a concentration of 3×10^5 spores/mi.
B) Compound Preparation and Test Execution--200 μl of 1/4 strength potato dextrose broth is placed in each well of a 96 well microtiter plate. […] The commercial standard used is flusilazole, at equivalent rates.
C) Inoculation/Incubation--50 μl of a 3×10^5 spores/ml suspension obtained using the method above is added to each well. The 96-well plate is incubated for 4-6 days at 25° C., 12 hours fluorescent light.
as §1, §2, §3, §4, §5

Septoria nodorum [4] = assay: Wheat Glume Blotch Foliar Assay, protectant (WGB Prot); format: in vivo; details: 10 ppm, application two days pre-inoculation
Description: A) Host Propagation--Winter wheat plants, cv. Caldwell, are grown in 5.7 cm^2 pots, three per pot, and maintained in a growth chamber set at 20° C., 80% RH with a 12 hour photoperiod.
B) Compound Preparation--A 1.0% stock solution of each of the compounds of the present invention is first prepared utilizing an appropriate solvent such as acetone, water or DMSO. This stock is then used to prepare the final spray solution which contains the compound at the desired dosage, eg 100 ppm and 20 ppm, acetone at 20% v/v, Tween®20 at .05% w/v, and water at about 80%. Commercial standard used is tebuconazole at equivalent rates.
C) Compound Application, Seedlings are sprayed at the two-leaf stage (GS 12) using a DeVilbiss Model 152 hand operated sprayer set at 15-20 psi. Six ml of the test solution per treatment are applied to three pots. In the protectant assay (EXAMPLE 8), the compound application is made two days pre-inoculation. In the curative assay (EXAMPLE 9), the compound is applied during a brief interruption of the disease incubation period two days post-inoculation.
D) Pathogen Production/Inoculation--The wheat glume blotch fungus, Septoria nodorum, is maintained in the pycnidial state on yeast malt agar (YMA) and transferred weekly by streaking a suspension of conidia obtained from a ten to twelve day old sporulating culture onto fresh YMA plates. The plates are incubated at 20° C. with a 12 hour photoperiod.
Test inoculum is prepared by flooding seven day old culture plates with deionized water amended with Tween®20 (0.1% v/v) and gently scraping the pycnidia to release the extruding masses of conidia. The resulting spore suspension is filtered through two layers of cheese cloth and adjusted to 4×10^6 spores/ml utilizing the Tween®20 solution.
Forty-eight hours after the compound application and prior to inoculation, the test plants are preconditioned for at least one hour in a dark growth chamber set at 20° C. and 100% RH. After the preconditioning period is over, the conidial suspension is applied to run-off using a DiVilbiss hand operated sprayer. The plants are then returned to the preconditioning chamber and incubated at the same settings for 96 hours. Light is supplied to the plants during the last twelve hours of incubation. At the end of the 96 hour period, the plants are returned to the environmental conditions under which they were grown.
E) Test Evaluation--Eight to ten days after removal from the high humidity chamber, or twelve to fourteen days after inoculation, treatments are evaluated by visually estimating the percentage of the leaf area (on the first leaf) covered with lesions. Three ratings are made on each pot which constitutes a replicate. Each replicate then receives a numerical mean by averaging the three values. Percent disease, as well as percent control values are calculated. The percent control values obtained from these assays for the compounds of the present invention are as set out in the Table below.

[5] = tested on: Botrytis cinerea Mitochondria; details: 1 μM concentration; cited from earlier work

CCO[C@H]1CC[C@H](c2ccccc2NC(=O)c2cn(C)nc2C(F)F)CC1 [Number 7, 1H-pyrazole-4-carboxamide, 3-(difluoromethyl)-N-[2-(4-ethoxycyclohexyl)phenyl]-1-methyl-,trans-]
IC50 (Succinate Dehydrogenase; DCPIP reduction, read-out: WGB enzyme I-50): 170 nM
WPM Prot percent disease control ([1]; 500 ppm foliar protectant): 96%
WES In vitro growth inhibition 0-3 scale ([2]; 0.1 ppm): 0
WES In vitro growth inhibition 0-3 scale ([2]; 0.5 ppm): 0
WES In vitro growth inhibition 0-3 scale ([2]; 5.0 ppm): 1
WGB In Vitro growth inhibition 0-3 scale (Septoria nodorum [3]; 0.1 ppm): 0
WGB In Vitro growth inhibition 0-3 scale (Septoria nodorum [3]; 0.5 ppm): 0
WGB In Vitro growth inhibition 0-3 scale (Septoria nodorum [3]; 5.0 ppm): 1

Cn1cc(C(=O)Nc2ccccc2C2CCC(C(F)(F)F)CC2)c(C(F)F)n1 (stereo not drawn) [Number 8]
WGB Prot percent control (Septoria nodorum [4]): 85%
WPM Prot percent disease control ([1]; 10 ppm foliar protectant): 91%

CC1=C(C(=O)Nc2ccccc2)SCCO1 [carboxin, reference compound]
IC50 (Succinate Dehydrogenase; standard throughout, n=52, read-out: I50): 5000 ± 2200 nM
respiratory inhibition [5]: 68%
